ChEMBL document CHEMBL2062517, “Design, synthesis, and antiviral activity of entry inhibitors that target the CD4-binding site of HIV-1” (J Med Chem, 2012)

Tests used:
Type in all cases: cell-based
[1] = Inhibition of X4-tropic HIV1 HXB2 gp120-mediated entry into human TZM-b1 cells expressing CD4,CXCR4,CCR5,luciferase and beta-galactosidase after 3 days by single cycle neutralization assay; conditions: Human immunodeficiency virus 1, HXB2, TZM-b1, 72 h
[2] = Inhibition of X4-tropic HIV1 3B gp120-mediated entry into human MT2 cells assessed as Inhibition of p24 production incubated overnight followed by compound wash-out measured after 4 days post-infection by multi-cycle neutralization assay; conditions: Human immunodeficiency virus 1, 3B, MT2, 96 h
[3] = Cytotoxicity against human TZM-b1 cells after 3 days by XTT assay; conditions: for CC50 at 72 h: TZM-b1 cells; for CC50: tzm-b1, 72 h
[4] = Cytotoxicity against human TZM-b1 cells at >84 uM after 3 days by XTT assay; conditions: tzm-b1, 72 h
[5] = (§1) Cytotoxicity against human MT2 cells after 4 days by XTT assay; conditions: MT2 cells
[6] = Cytotoxicity against human TZM-b1 cells at >75.8 uM after 3 days by XTT assay; conditions: tzm-b1, 72 h
MT2 [7] = test: as §1; conditions: mt2, 96 h
[8] = Cytotoxicity against human TZM-b1 cells at >87 uM after 3 days by XTT assay; conditions: tzm-b1, 72 h
[9] = Cytotoxicity against human TZM-b1 cells at >78.2 uM after 3 days by XTT assay; conditions: tzm-b1, 72 h
[10] = Cytotoxicity against human TZM-b1 cells at >22 uM after 3 days by XTT assay; conditions: tzm-b1, 72 h
MT2 [11] = test: Cytotoxicity against human MT2 cells at >[…] after 4 days by XTT assay; conditions: mt2, 96 h
[12] = Cytotoxicity against human TZM-b1 cells at >88 uM after 3 days by XTT assay; conditions: tzm-b1, 72 h
MT2 [13] = test: Cytotoxicity against human MT2 cells at >88 uM after 4 days by XTT assay; conditions: mt2, 96 h
MT2 [14] = test: Cytotoxicity against human MT2 cells at >41 uM after 4 days by XTT assay; conditions: mt2, 96 h
[15] = Cytotoxicity against human TZM-b1 cells at >85 uM after 3 days by XTT assay; conditions: tzm-b1, 72 h
[16] = Cytotoxicity against human TZM-b1 cells at >77.8 uM after 3 days by XTT assay; conditions: tzm-b1, 72 h
[17] = Cytotoxicity against human TZM-b1 cells at >75.5 uM after 3 days by XTT assay; conditions: tzm-b1, 72 h
[18] = Cytotoxicity against human TZM-b1 cells at >74 uM after 3 days by XTT assay; conditions: tzm-b1, 72 h
[19] = Cytotoxicity against human TZM-b1 cells at >60 uM after 3 days by XTT assay; conditions: tzm-b1, 72 h
MT2 [20] = test: Cytotoxicity against human MT2 cells at >62 uM after 4 days by XTT assay; conditions: mt2, 96 h
[21] = Cytotoxicity against human TZM-b1 cells at >90 uM after 3 days by XTT assay; conditions: tzm-b1, 72 h

SMILES	IC50 [1]	IC50 [2]	CC50 at 72 h [3]	CC50 (MT2 [7])	other results
CC(=O)N1CCCCC1C(NC(=O)C(=O)Nc1ccc(Cl)cc1)c1nc(C)c(CCO)s1 (mixture of isomers)	19.7 µM	> 52 µM	> 84 µM	–	Activity [4]: 20%
Cc1nc(C(NC(=O)C(=O)Nc2ccc(F)c(Cl)c2)C2CCCCN2)sc1CCO (mixture of isomers)	9 µM	19.5 µM	> 75.8 µM	–	CC50 at 96 h [5]: 94.7 µM; Activity [6]: 20%
Cc1nc(C(NC(=O)C(=O)Nc2ccc(F)cc2)C2CCCCN2)sc1CCO (mixture of isomers)	22 µM	21.6 µM	> 88 µM	–	CC50 at 96 h [5]: 109 µM
CC(=O)c1ccc(NC(=O)C(=O)NC(c2nc(C)c(CO)s2)C2CCCCN2)cc1 (mixture of isomers)	> 86 µM	107 µM	> 86 µM	> 107 µM	–
Cc1nc(C(NC(=O)C(=O)Nc2ccc(F)c(F)c2)C2CCCCN2)sc1CO (mixture of isomers)	8.4 µM	14 µM	> 87 µM	–	Activity [8]: 0%
C[C@@H](NC(=O)C(=O)Nc1ccc(Cl)cc1)[C@H](c1ccccc1)N1CCOCC1	> 99.6 µM	> 24.9 µM	> 99.6 µM	–	–
Cc1nc(C(NC(=O)C(=O)Nc2ccc(F)c(F)c2)C2CCCCN2)sc1CCO (mixture of isomers)	8.2 µM	24.1 µM	> 78.2 µM	–	Activity [9]: 10%
Cc1nc(C(NC(=O)C(=O)Nc2ccc(Cl)cc2)C2CCCN2)sc1CO (mixture of isomers)	4.8 µM	15.4 µM	–	–	CC50 [3]: 12.4 µM; CC50 at 96 h [5]: 45 µM
Cc1ccc(NC(=O)C(=O)NC(c2nc(C)c(CCO)s2)C2CCCCN2)c(F)c1 (mixture of isomers)	> 78.8 µM	45.8 µM	> 78.8 µM	–	–
Cc1nc(C(NC(=O)C(=O)Nc2ccc(Cl)cc2)C2CCCCN2)sc1CO (mixture of isomers)	4.3 µM	4.7 µM	> 22 µM	> 108 µM	Activity [10]: 10%; Activity (MT2 [11]): 40%
Cc1nc(C(NC(=O)C(=O)Nc2ccc(Cl)cc2)C2CCNCC2)sc1CCO (racemic)	1 µM	30.5 µM	85.4 µM	> 78.5 µM	–
COC(=O)[C@@H]1C[C@@H](NC(=O)C(=O)Nc2ccc(Cl)cc2)[C@H](c2ccccc2)N1	> 99.6 µM	> 24.9 µM	> 99.6 µM	–	–
Cc1ccc(NC(=O)C(=O)NC(c2nc(C)c(CO)s2)C2CCCCN2)cc1F (mixture of isomers)	2.7 µM	5.3 µM	> 88 µM	–	Activity [12]: 0%; Activity (MT2 [13]): 30%
Cc1nc(C(NC(=O)C(=O)Nc2ccc(Cl)c(F)c2)C2CCCCN2)sc1CCO (mixture of isomers)	1.98 µM	3.5 µM	61 µM	> 41 µM	Activity (MT2 [14]): 10%
Cc1ccc(NC(=O)C(=O)NC(c2nc(C)c(CO)s2)C2CCCCN2)c(F)c1 (mixture of isomers)	> 88 µM	66 µM	> 88 µM	> 109 µM	–
CCn1cc(NC(=O)C(=O)Nc2ccc(Cl)cc2)cn1	5.9 µM	11.9 µM	8 µM	10.7 µM	–
Cc1nc(C(NC(=O)C(=O)Nc2ccc(Cl)c(F)c2)C2CCCCN2)sc1CO (mixture of isomers)	1.6 µM	3.8 µM	58.4 µM	–	CC50 at 96 h [5]: 77.8 µM
Cc1ccc(NC(=O)C(=O)NC(c2nc(C)c(CCO)s2)C2CCCCN2)cc1F (mixture of isomers)	1.66 µM	3.7 µM	> 85 µM	–	CC50 at 96 h [5]: 85 µM; Activity [15]: 40%

SMILES	IC50 [1]	IC50 [2]	CC50 at 72 h [3]	CC50 (MT2 [7])	other results
Cc1nc(C(NC(=O)C(=O)Nc2ccc(F)cc2F)C2CCCCN2)sc1CO (mixture of isomers)	> 87 µM	110 µM	> 87 µM	> 110 µM	–
Cc1nc(C(NC(=O)C(=O)Nc2ccc(F)c(Cl)c2)C2CCCCN2)sc1CO (mixture of isomers)	6.5 µM	9.5 µM	> 77.8 µM	–	Activity [16]: 0%
Cc1nc(C(NC(=O)C(=O)Nc2ccc(C(F)(F)F)cc2)C2CCCCN2)sc1CO (mixture of isomers)	10.3 µM	4.6 µM	> 75.5 µM	–	Activity [17]: 10%
Cc1nc(C(NC(=O)C(=O)Nc2ccc(Cl)cc2)C2CCNCC2)sc1CO (racemic)	0.83 µM	29.8 µM	81 µM	> 81 µM	–
Cc1nc(C(NC(=O)C(=O)Nc2ccc(Cl)cc2)C2CCCNC2)sc1CO (mixture of isomers)	1.4 µM	12 µM	60.2 µM	> 81 µM	–
Cc1nc(C(NC(=O)C(=O)Nc2ccc(C(F)(F)F)cc2)C2CCCCN2)sc1CCO (stereo unspecified)	4.9 µM	17.4 µM	> 74 µM	> 39 µM	Activity [18]: 35%
Cc1nc(C(NC(=O)C(=O)Nc2ccc(Cl)cc2)C2CCCCN2C)sc1CCO (mixture of isomers)	1.9 µM	28.6 µM	–	–	CC50 [3]: 36 µM; CC50 at 96 h [5]: 88 µM
Cc1nc(C(NC(=O)C(=O)NC2CCCCCC2)C2CCCCN2)sc1CCO (mixture of isomers)	> 88 µM	19.6 µM	> 88 µM	–	CC50 at 96 h [5]: 60 µM
CC1(C)CC(NC(=O)C(=O)Nc2ccc(Cl)cc2)CC(C)(C)N1	4.2 µM	8 µM	> 60 µM	–	CC50 at 96 h [5]: 150 µM; Activity [19]: 10%
Cc1nc(C(NC(=O)C(=O)Nc2ccc(Cl)cc2)C2CCCCN2)sc1CCO (mixture of isomers)	4.6 µM	4.2 µM	–	> 62 µM	CC50 [3]: 32.8 µM; Activity (MT2 [20]): 0%
Cc1nc(C(NC(=O)C(=O)NC2CCCCCC2)C2CCCCN2)sc1CO (mixture of isomers)	> 90 µM	39.3 µM	> 90 µM	–	–
Cc1nc(C(NC(=O)C(=O)Nc2ccc(Cl)cc2)C2CCCNC2)sc1CCO (mixture of isomers)	0.65 µM	13.1 µM	59.4 µM	> 78.5 µM	–
Cc1nc(C(NC(=O)C(=O)Nc2ccc(Cl)cc2)C2CCCN2)sc1CCO (mixture of isomers)	4.2 µM	16.2 µM	4.9 µM	–	CC50 at 96 h [5]: 42 µM
CNCC(NC(=O)C(=O)Nc1ccc(Cl)cc1)c1nc(C)c(CCO)s1 (racemic)	2.8 µM	24.3 µM	–	> 43 µM	CC50 [3]: 16.6 µM
Cc1nc(C(NC(=O)C(=O)Nc2ccc(F)cc2)C2CCCCN2)sc1CO (mixture of isomers)	7.4 µM	47.9 µM	> 90 µM	> 113 µM	Activity [21]: 0%
Cc1nc(C(NC(=O)C(=O)Nc2ccc(F)cc2F)C2CCCCN2)sc1CCO (mixture of isomers)	> 84 µM	> 105 µM	> 84 µM	> 105 µM	–
CC(=O)c1ccc(NC(=O)C(=O)NC(c2nc(C)c(CCO)s2)C2CCCCN2)cc1 (mixture of isomers)	> 77.3 µM	24.5 µM	> 77.3 µM	> 48.3 µM	–
